Measured values taken from patent US8222219B2, “Glucopyranoside compound” (Mitsubishi Tanabe Pharma Corporation, priority 2003, dated 2012).
pIC50: −log10 of the molar value.

Target: T1, human SGLT2 (Homo sapiens, UniProt P31639)
T1 construct: expressed in transfected cells; host or cells: CHOK1 (CHO-K1) cells, kept under Geneticin selection
T1 sequence (P31639 1-672): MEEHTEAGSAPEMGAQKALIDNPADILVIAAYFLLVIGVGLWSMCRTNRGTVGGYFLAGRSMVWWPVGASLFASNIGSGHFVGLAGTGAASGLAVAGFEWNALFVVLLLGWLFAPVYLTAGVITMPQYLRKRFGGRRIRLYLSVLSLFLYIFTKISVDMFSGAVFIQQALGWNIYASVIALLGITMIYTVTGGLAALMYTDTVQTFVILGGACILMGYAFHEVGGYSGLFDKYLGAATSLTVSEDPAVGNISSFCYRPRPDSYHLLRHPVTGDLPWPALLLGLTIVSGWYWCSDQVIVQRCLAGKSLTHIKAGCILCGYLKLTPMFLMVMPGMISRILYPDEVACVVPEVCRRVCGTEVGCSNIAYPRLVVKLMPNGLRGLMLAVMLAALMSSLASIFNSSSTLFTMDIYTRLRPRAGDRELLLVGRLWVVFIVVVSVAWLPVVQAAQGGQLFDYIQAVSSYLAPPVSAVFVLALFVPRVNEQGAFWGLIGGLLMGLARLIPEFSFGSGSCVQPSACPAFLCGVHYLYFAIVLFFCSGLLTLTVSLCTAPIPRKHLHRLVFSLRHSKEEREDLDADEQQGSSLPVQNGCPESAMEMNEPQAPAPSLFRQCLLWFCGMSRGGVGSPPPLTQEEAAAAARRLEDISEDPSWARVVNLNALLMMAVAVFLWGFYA
Assay: Assay for SGLT2 inhibition (14C-AMG uptake in CHOK1 cells expressing human SGLT2)
Type: cell-based
Details: CHOK1 cells expressing human SGLT2; 14C-AMG uptake 0.5 mM, 2 hours at 37° C.; read-out: IC50
Procedure: 1. Assay for SGLT2 Inhibition
Compounds described in the above examples were used for the SGLT2 inhibition assay.
CHOK1 cells expressing human SGLT2 were seeded in 24-well plates at a density of 400,000 cells/well in F-12 nutrient mixture (Ham's F-12) containing 10% fetal bovine serum, 400 μg/ml Geneticin, 50 units/ml sodium penicillin G (Gibco-BRL) and 50 μg/ml streptomycin sulfate. […] Test compounds were dissolved in DMSO. The final concentration of DMSO was 0.5%. The transport reaction was initiated by addition of 50 μl [^14C]-methyl-α-D-glucopyranoside (^14C-AMG) solution (final concentration, 0.5 mM). After incubation for 2 hours at 37° C., the uptake was stopped by aspiration of the incubation mixture, the cells were washed three times with ice-cold PBS. Then, cells were solubilized with 0.3 N NaOH and aliquots were taken for determination of radioactivity by a liquid scintillation counter. Nonspecific AMG uptake was defined as that which occurred in the presence of 100 μM of phlorizin, a specific inhibitor of sodium-dependent glucose cotransporter. Specific uptake was normalized for the protein concentrations measured by the method of Bradford.

## O=C(O)c1ccc(-c2ccc(Cc3cc([C@@H]4O[C@H](CO)[C@@H](O)[C@H](O)[C@H]4O)ccc3Cl)s2)cc1 [Example 192, 1-(β-D-glucopyranosyl)-3-(5-(4-carboxyphenyl)-2-thienylmethyl)-4-chlorobenzene]
  pIC50: 8.13

## Cc1ccc([C@@H]2O[C@H](CO)[C@@H](O)[C@H](O)[C@H]2O)cc1Cc1ccc(-c2cccc(C(F)F)c2)s1 [Example 130, 1-(β-D-glucopyranosyl)-3-(5-(3-difluoromethylphenyl)-2-thienylmethyl)-4-methylbenzene]
  pIC50: 8.62

## CCOc1cccc(-c2ccc(Cc3cc([C@@H]4O[C@H](CO)[C@@H](O)[C@H](O)[C@H]4O)ccc3Cl)s2)n1 [Example 173, 1-(β-D-glucopyranosyl)-4-chloro-3-(5-(6-ethoxy-2-pyridyl)-2-thienylmethyl)benzene]
  pIC50: 8.10

## Cc1cccc(-c2ccc(Cc3cc([C@@H]4O[C@H](CO)[C@@H](O)[C@H](O)[C@H]4O)ccc3Cl)s2)c1 [Example 87]
  pIC50: 8.47

## Cc1cc(-c2ccc(Cc3cc([C@@H]4O[C@H](CO)[C@@H](O)[C@H](O)[C@H]4O)ccc3Cl)s2)ccn1 [Example 253]
  pIC50: 8.80

## CCOc1cccc(-c2ccc(Cc3cc([C@@H]4O[C@H](CO)[C@@H](O)[C@H](O)[C@H]4O)ccc3F)s2)c1 [Example 79]
  pIC50: 8.05

## OC[C@H]1O[C@@H](c2ccc(Cl)c(Cc3ccc(-c4ccc(C(F)F)cc4)s3)c2)[C@H](O)[C@@H](O)[C@@H]1O [Example 179, 1-(β-D-glucopyranosyl)-4-chloro-3-(5-(4-difluoromethylphenyl)-2-thienylmethyl)benzene]
  pIC50: 8.01

## Cc1ccc([C@@H]2O[C@H](CO)[C@@H](O)[C@H](O)[C@H]2O)cc1Cc1ccc(-c2cc(F)cc(F)c2)s1 [Example 201]
  pIC50: 8.09

## OC[C@H]1O[C@@H](c2ccc(F)c(Cc3ccc(-c4cccc(F)n4)s3)c2)[C@H](O)[C@@H](O)[C@@H]1O [Example 248]
  pIC50: 8.29

## N#Cc1ccc(-c2ccc(Cc3cc([C@@H]4O[C@H](CO)[C@@H](O)[C@H](O)[C@H]4O)ccc3Cl)s2)cc1F [Example 183, 1-(β-D-glucopyranosyl)-4-chloro-3-(5-(4-cyano-3-fluorophenyl)-2-thienylmethyl)benzene]
  pIC50: 8.02

## Cc1ccc([C@@H]2O[C@H](CO)[C@@H](O)[C@H](O)[C@H]2O)cc1Cc1ccc(-c2cccc(F)c2)s1 [Example 83]
  pIC50: 8.89

## COc1c(Cc2ccc(Cl)s2)cc([C@@H]2O[C@H](CO)[C@@H](O)[C@H](O)[C@H]2O)c2ccccc12 [Example 250, 1-(β-D-Glucopyranosyl)-3-(5-chloro-2-thienylmethyl)-4-methoxynaphthalene]
  pIC50: 8.38

## Cc1ccc([C@@H]2O[C@H](CO)[C@@H](O)[C@H](O)[C@H]2O)cc1Cc1ccc(-c2ccnc(F)c2)s1 [Example 217]
  pIC50: 8.44

## Cc1ccc([C@@H]2O[C@H](CO)[C@@H](O)[C@H](O)[C@H]2O)cc1Cc1ccc(-n2cccn2)s1 [Example 227]
  pIC50: 8.49

## Cc1ccc([C@@H]2O[C@H](CO)[C@@H](O)[C@H](O)[C@H]2O)cc1Cc1cc2ccc(OC(F)F)cc2s1 [Example 224]
  pIC50: 8.23

## COc1c(Cc2ccc(-c3ncccn3)s2)cc([C@@H]2O[C@H](CO)[C@@H](O)[C@H](O)[C@H]2O)c2ccccc12 [Example 266]
  pIC50: 8.49

## Cc1ccc([C@@H]2O[C@H](CO)[C@@H](O)[C@H](O)[C@H]2O)cc1Cc1ccc(-c2ccc(F)c(C#N)c2)s1 [Example 185, 1-(β-D-glucopyranosyl)-4-methyl-3-(5-(3-cyano-4-fluorophenyl)-2-thienylmethyl)benzene]
  pIC50: 8.25

## Cc1ccc([C@@H]2O[C@H](CO)[C@@H](O)[C@H](O)[C@H]2O)cc1Cc1ccc(-c2ccc(C#N)c(F)c2)s1 [Example 219]
  pIC50: 8.17

## CCOc1cccc(-c2ccc(Cc3cc([C@@H]4O[C@H](CO)[C@@H](O)[C@H](O)[C@H]4O)ccc3Cl)s2)c1 [Example 72]
  pIC50: 8.34

## OC[C@H]1O[C@@H](c2ccc(F)c(Cc3ccc(-c4cccc(F)c4)s3)c2)[C@H](O)[C@@H](O)[C@@H]1O [Example 80]
  pIC50: 8.17
